Assays:
[1] = system: LPS-induced TNF-α secretion in human whole blood; test: Human whole blood assay for LPS-induced TNF-α secretion; assay type: cell-based; conditions: Homo sapiens, LPS 100 ng/ml, read-out: TNF Secretion HWB IC50
Summary of the method: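 Fresh blood from healthy volunteers pre-incubated 1 h at 37° C with compound (final DMSO <0.2%), then stimulated with 100 ng/ml LPS for 4 h or overnight at 37° C with rotation. Supernatant TNF-α measured by ELISA; percent inhibition and IC50 derived by curve fitting.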

MMP-13 = MMP-13 (Homo sapiens, UniProt P45452); test: In-vitro fluorescence assay of MMP-13 activity; assay type: biochemical
Method: See Knight, C. […] […].
The method was essentially the same as for the determination of MMP-1 activity, described above, except that the final concentration of purified MMP in the assay was 0.5 nM, prepared by diluting with the assay buffer.

recombinant human MMP-9 = molecular target: T1, recombinant human MMP-9 (Homo sapiens, UniProt P14780); test: In-vitro fluorescence assay of MMP-9 activity; assay type: biochemical
T1 construct: purchased Calbiochem PF024
Method: The method was similar to that for the determination of MMP-1 activity, described above, with the following differences. Active, recombinant human MMP-7 was purchased from Calbiochem (catalog #444270; expressed in E. coli, 19 kDa). […] The concentration of the substrate stock was spectrophotometrically determined using the extinction coefficient at 410 nm of 7500 M^−1 cm^−1. The assay buffer (pH 7.4) consisted of 50 mM Hepes, 100 mM NaCl, 5 mM CaCI2, and 0.005% Brij-35. […] The plates were then incubated at room temperature for 30 minutes. The enzymatic reactions were initiated by adding substrate to a final concentration of 15 μM and were mixed by pipelting up and down. The final DMSO concentration in the assay was 10% and the final, total assay volume was 200 μl. […].
The method was essentially the same as for the determination of MMP-7 activity, described above, except that the source of enzyme in the assay was recombinant human MMP-9 (83 kDa) was purchased from Calbiochem (catalog #PF024), the final enzyme concentration was 0.5-1.0 nM, and the final substrate concentration was 20 μM.

[2] = molecular target: T2, recombinant human catalytic domain of MMP-14 (Homo sapiens, UniProt P50281); test: In-vitro fluorescence assay of MMP-14 activity; assay type: biochemical
T2 construct: 20 kDa; purchased Chemicon International, Inc. CC1041
Method: The results were analyzed as described for MMP-13 activity, above.

recombinant human MMP-8 = recombinant human MMP-8 (Homo sapiens, UniProt P22894); test: In-vitro fluorescence assay of MMP-8 activity
Sequence of recombinant human MMP-8 (P22894 101-467): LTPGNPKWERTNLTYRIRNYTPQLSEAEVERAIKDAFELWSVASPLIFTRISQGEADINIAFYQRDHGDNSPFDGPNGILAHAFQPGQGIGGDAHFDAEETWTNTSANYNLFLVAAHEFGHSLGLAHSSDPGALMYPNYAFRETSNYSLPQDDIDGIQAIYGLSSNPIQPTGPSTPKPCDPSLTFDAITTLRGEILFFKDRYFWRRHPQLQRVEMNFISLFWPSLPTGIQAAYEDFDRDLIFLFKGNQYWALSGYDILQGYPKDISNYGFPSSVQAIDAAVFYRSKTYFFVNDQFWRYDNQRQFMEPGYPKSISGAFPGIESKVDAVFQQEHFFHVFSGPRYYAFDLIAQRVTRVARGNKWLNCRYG

T1 sequence (P14780 107-707 limits assumed): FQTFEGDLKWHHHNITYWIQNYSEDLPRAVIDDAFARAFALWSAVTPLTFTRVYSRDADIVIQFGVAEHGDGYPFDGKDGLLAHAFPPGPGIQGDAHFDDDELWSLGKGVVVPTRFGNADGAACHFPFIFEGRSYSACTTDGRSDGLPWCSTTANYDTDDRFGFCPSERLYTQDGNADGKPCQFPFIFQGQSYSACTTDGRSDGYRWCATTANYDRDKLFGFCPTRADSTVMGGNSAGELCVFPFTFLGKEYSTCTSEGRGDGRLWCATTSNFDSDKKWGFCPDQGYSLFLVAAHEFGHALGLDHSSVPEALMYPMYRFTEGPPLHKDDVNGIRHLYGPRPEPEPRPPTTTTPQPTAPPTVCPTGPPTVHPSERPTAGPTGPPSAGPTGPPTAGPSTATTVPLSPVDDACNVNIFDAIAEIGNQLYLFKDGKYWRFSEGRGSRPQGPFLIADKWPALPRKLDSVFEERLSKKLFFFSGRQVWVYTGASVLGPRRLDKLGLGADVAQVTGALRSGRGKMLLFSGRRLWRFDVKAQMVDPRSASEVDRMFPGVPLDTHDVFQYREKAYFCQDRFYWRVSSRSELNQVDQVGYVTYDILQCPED

| IC50 [1] [µM] | IC50 (MMP-13) [µM] | IC50 (recombinant human MMP-9) [µM] | IC50 [2] [µM] | IC50 (recombinant human MMP-8) [µM] | Structure (SMILES) |
| --- | --- | --- | --- | --- | --- |
| 0.34 | > 10 | > 16.7 | > 16.7 | > 16.7 | Cc1cc(COc2ccc(S(=O)(=O)N[C@@H]3CN(S(C)(=O)=O)C[C@@H]3C(=O)NO)cc2)c2ccccc2n1 (relative stereo) [Example 17, cis-N-Hydroxy-4-[({4-[(2-methylquinolin-4-yl)methoxy]phenyl}sulfonyl)amino]-1-(methylsulfonyl) pyrrolidine-3-carboxamide] |
| 0.12 | 10.2 | > 16.7 | > 16.7 | > 16.7 | Cc1cc(COc2ccc(S(=O)(=O)N[C@@H]3CN(C=O)C[C@@H]3C(=O)NO)cc2)c2ccccc2n1 (relative stereo) [Example 20, cis-1-Formyl-N-hydroxy-4-[({4-[(2-methylquinolin-4-yl)methoxy]phenyl}sulfonyl)amino]pyrrolidine-3-carboxamide] |
| 0.28 | > 16.7 | > 16.7 | > 16.7 | > 16.7 | CCNC(=O)N1C[C@H](C(=O)NO)[C@H](NS(=O)(=O)c2ccc(OCc3cc(C)nc4ccccc34)cc2)C1 (relative stereo) [Example 23, cis-1-Ethyl-N-hydroxy-4-[({4-[(2-methylquinolin-4-yl)methoxy]phenyl}sulfonyl)amino]pyrrolidine-1,3-dicarboxamide] |
| 0.2 | > 16.7 | > 16.7 | > 16.7 | > 16.7 | Cc1cc(COc2ccc(S(=O)(=O)N[C@H]3COC[C@H]3C(=O)NO)cc2)c2ccccc2n1 (stereo in doubt) [Example 26, (3S,4R)-4-[4-(2-Methyl-quinolin-4-ylmethoxy)-benzenesulfonylamino]-tetrahydro-furan-3-carboxylic acid hydroxyamide] |
| 0.25 | > 10 | > 16.7 | > 16.7 | > 16.7 | Cc1cc(COc2ccc(S(=O)(=O)N[C@@H]3CCC[C@@H]3C(=O)NO)cc2)c2ccccc2n1 [Example 13, (1S,2R)-N-Hydroxy-2-[({4-[(2-methylquinolin-4-yl)methoxy]phenyl}sulfonyl)amino]cyclopentanecarboxamide] |
| 0.8 | > 16.7 | > 16.7 | > 16.7 | > 16.7 | Cc1cc(COc2ccc(S(=O)(=O)N[C@@H]3CN(C(=O)NC(C)(C)C)CC[C@@H]3C(=O)NO)cc2)c2ccccc2n1 [Example 35, 3-[4-(2-Methyl-quinolin4-ylmethoxy)-benzenesulfonylamino]-piperidine-1,4-dicarboxylic acid 1-tert-butylamide 4-hydroxyamide] |
